Source: PMC7504677, “Impact of N-Alkylamino Substituents on Serotonin Receptor (5-HTR) Affinity and Phosphodiesterase 10A (PDE10A) Inhibition of Isoindole-1,3-dione Derivatives” (Molecules, 2020)

Experiments:
[1] = target: 5-HT7 receptor (Homo sapiens, UniProt P34969); test: radioligand binding assay, [3H]-LSD; details: read-out: 5-HT7 1 µM ± SEM (% of control specific binding)
Description: (§1) Briefly: binding experiments were conducted in 96-well microplates in a total final volume of 250 μL of appropriate buffers. Reaction mix included 50 μL solution of test compound, 50 μL of radioligand ([^3H]8-OH-DPAT for 5-HT1A, and [^3H]-LSD for 5-HT7, respectively) and 150 μL of diluted membranes (see description and Table S2 in Supporting Materials). Specific assay conditions for each receptor are described elsewhere. The radioactivity was measured in a MicroBeta2 scintillation counter (PerkinElmer, USA). Each compound was tested in the assay as duplicate samples at 1 µM final concentrations. Results were expressed as percent inhibition of specific binding.

[2] = tested on: CD-1 mice; test: spontaneous locomotor activity; assay type: in vivo; details: for spontaneous locomotor activity: mean ± S.E.M.
Description: The experiments were performed on male CD-1 mice (in the accredited animal facility at the Jagiellonian University Medical College, Krakow, Poland), and mice were kept in groups of ten in Makrolon type 3 cages (dimensions 26.5 × 15 × 42 cm). The animals were kept in an environmentally controlled room (ambient temperature 22 ± 2 °C; relative humidity 50–60%; 12:12 light:dark cycle, lights on at 8:00). They were allowed to acclimatize with the environment for one week before commencement of the experiments. Standard laboratory food (Ssniff M-Z) and filtered water were freely available. All the experimental procedures were approved by the I Local Ethics Commission at the Jagiellonian University in Krakow (Approval Nos.: 125/2017, 123/2015, and 158/2017).
All the experiments were conducted in the light phase between 09.00 and 14.00 h. Each experimental group consisted of 7–10 animals per treatment dose. The animals were used only once.
Locomotor activity was recorded with an Opto M3 multi-channel activity monitor (MultiDevice Software v.1.3, Columbus Instruments, Columbus, OH, USA). The CD-1 mice were individually placed in plastic cages (22 × 12 × 13 cm) immediately after drug administration, and then ambulation was counted during 1 h with data recording every 10 min. The cages were cleaned up with 70% ethanol after each mouse.
Locomotor activity was recorded according to the method described above.
All compounds were injected at a volume of 10 mL/kg. Control animals received a vehicle injection according to the same schedule.

[3] = target: T1, D2 receptor (Homo sapiens, UniProt P14416); test: CEREP screening, inhibition of control binding; details: CEREP Laboratories, read-out: percent of inhibition of the control binding for D2
T1 construct: Cerep (protocol)

[4] = tested on: CD-1 mice; test: d-amphetamine-induced hyperlocomotor activity; assay type: in vivo
Description: The experiments were performed on male CD-1 mice (in the accredited animal facility at the Jagiellonian University Medical College, Krakow, Poland), and mice were kept in groups of ten in Makrolon type 3 cages (dimensions 26.5 × 15 × 42 cm). The animals were kept in an environmentally controlled room (ambient temperature 22 ± 2 °C; relative humidity 50–60%; 12:12 light:dark cycle, lights on at 8:00). They were allowed to acclimatize with the environment for one week before commencement of the experiments. Standard laboratory food (Ssniff M-Z) and filtered water were freely available. All the experimental procedures were approved by the I Local Ethics Commission at the Jagiellonian University in Krakow (Approval Nos.: 125/2017, 123/2015, and 158/2017). All the experiments were conducted in the light phase between 09.00 and 14.00 h. Each experimental group consisted of 7–10 animals per treatment dose. The animals were used only once. Locomotor activity was recorded with an Opto M3 multi-channel activity monitor (MultiDevice Software v.1.3, Columbus Instruments, Columbus, OH, USA). The CD-1 mice were individually placed in plastic cages (22 × 12 × 13 cm) immediately after drug administration, and then ambulation was counted during 1 h with data recording every 10 min. The cages were cleaned up with 70% ethanol after each mouse. […] All compounds were injected at a volume of 10 mL/kg. Control animals received a vehicle injection according to the same schedule.

[5] = target: T2, 5-HT2A receptor (Homo sapiens, UniProt P28223); test: CEREP screening, inhibition of control binding; details: CEREP Laboratories, read-out: percent of inhibition of the control binding for 5-HT2A
T2 construct: Cerep (protocol)

[6] = target: PDE10A (Homo sapiens, UniProt Q9Y233); test: luminescence PDE inhibition assay (PDElight HTS cAMP phosphodiesterase assay kit); assay type: biochemical
Description: Test and reference compounds were dissolved in dimethyl sulfoxide (DMSO) at a concentration of 1 mM and further diluted in assay buffer in order to obtain the final concentration of compounds: 10 µM and 3 µM, respectively. All reactions were carried out at 37 °C in white, half-area 96-well plates (Perkin Elmer, Waltham, MA, USA). The inhibition of PDE 10A enzyme was measured using the PDElight HTS cAMP phosphodiesterase assay kit (Lonza) according to the manufacturer’s recommendations. 2.5 U of PDE 10A enzyme was preincubated either with DMSO (vehicle control) or compound for 20 min before incubation with the substrate, cAMP (final concentration 1.25 µM), for 1 h. Then, PDELight AMP Detection Reagent was added. After 10 min incubation, the luminescence was measured in a multifunction plate reader (POLARstar Omega, BMG Labtech, Ortenberg, Germany).

[7] = tested on: HePG2 human liver cancer cell-line; test: MTT cytotoxicity assay; assay type: cell-based; details: HepG2 cells, 24 h, 0.1–100 µM
Description: (§2) The HePG2 human liver cancer cell-line, (ATCC® 59195™) and the SH-SY5Y human neuroblastoma cell-line (ATCC® CRL-2266™) were used in the study. The cells were cultured in standard conditions (37 °C, 5% CO2), in EMEM (HepG2 and SH-SY5Y), supplemented with 10% fetal bovine serum (FBS) (Gibco, Thermo Fisher Scientific, Waltham, MA. USA) and antibiotics (Lonza, Köln, Germany).
(§3) The MTT assay was used to determine the cytotoxic effects of the analyzed compounds. Cells were seeded at a density of 2 × 10^4 in 96-well plates. Following overnight culture, cells were then treated with increasing concentrations of compound 18 (0.1–100 µM) and incubated for 24 h. Following cell exposure for 24 h, 10 µL MTT reagent (Sigma Aldrich) was added to each well and, after 3 h of incubation (37 °C, 5% CO2), the medium was aspirated and the formazan produced in the cells appeared as dark crystals in the bottom of the wells. Next, Crystal DMSO was added to each well. Then, the optical density (OD) of each well was determined at 570 nm on a plate-reader (Spectra iD3, Molecular Devices, San Jose, CA, USA). The number of metabolically active and living cells is directly proportional to the absorbance of the samples. The results are presented in Figure 5 as the percentage of control ± SEM. Doxorubicin was used as reference standard (cytotoxic agent).

[8] = tested on: SH-SY5Y human neuroblastoma cell-line; test: MTT cytotoxicity assay; assay type: cell-based; details: SHSY-5Y cells, 24 h, 0.1–100 µM
Description: as §2, §3

[9] = target: T3, 5-HT1A receptor (Homo sapiens, UniProt P08908); test: radioligand binding assay, [3H]8-OH-DPAT; details: read-out: 5-HT1A 1 µM ± SEM (% of control specific binding)
T3 sequence (P08908 1-422): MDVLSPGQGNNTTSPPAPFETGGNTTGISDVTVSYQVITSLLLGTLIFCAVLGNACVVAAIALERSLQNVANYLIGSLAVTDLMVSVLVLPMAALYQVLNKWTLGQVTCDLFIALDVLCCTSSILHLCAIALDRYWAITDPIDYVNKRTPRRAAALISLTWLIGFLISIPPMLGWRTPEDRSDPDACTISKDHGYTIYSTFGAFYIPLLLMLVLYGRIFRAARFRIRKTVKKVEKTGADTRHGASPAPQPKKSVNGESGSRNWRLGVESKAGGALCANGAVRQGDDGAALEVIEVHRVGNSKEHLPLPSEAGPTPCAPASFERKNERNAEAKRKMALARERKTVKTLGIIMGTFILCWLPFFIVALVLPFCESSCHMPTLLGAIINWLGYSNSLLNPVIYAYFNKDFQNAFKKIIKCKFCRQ
Description: as §1

[10] = 60 mg/kg ip, 10 min of the test
[11] = 60 mg/kg ip, 20 min of the test
[12] = 60 mg/kg ip, 30 min of the test
[13] = 60 mg/kg ip, 60 min of the test

Sequence of PDE10A (Q9Y233 whole entry, species assumed): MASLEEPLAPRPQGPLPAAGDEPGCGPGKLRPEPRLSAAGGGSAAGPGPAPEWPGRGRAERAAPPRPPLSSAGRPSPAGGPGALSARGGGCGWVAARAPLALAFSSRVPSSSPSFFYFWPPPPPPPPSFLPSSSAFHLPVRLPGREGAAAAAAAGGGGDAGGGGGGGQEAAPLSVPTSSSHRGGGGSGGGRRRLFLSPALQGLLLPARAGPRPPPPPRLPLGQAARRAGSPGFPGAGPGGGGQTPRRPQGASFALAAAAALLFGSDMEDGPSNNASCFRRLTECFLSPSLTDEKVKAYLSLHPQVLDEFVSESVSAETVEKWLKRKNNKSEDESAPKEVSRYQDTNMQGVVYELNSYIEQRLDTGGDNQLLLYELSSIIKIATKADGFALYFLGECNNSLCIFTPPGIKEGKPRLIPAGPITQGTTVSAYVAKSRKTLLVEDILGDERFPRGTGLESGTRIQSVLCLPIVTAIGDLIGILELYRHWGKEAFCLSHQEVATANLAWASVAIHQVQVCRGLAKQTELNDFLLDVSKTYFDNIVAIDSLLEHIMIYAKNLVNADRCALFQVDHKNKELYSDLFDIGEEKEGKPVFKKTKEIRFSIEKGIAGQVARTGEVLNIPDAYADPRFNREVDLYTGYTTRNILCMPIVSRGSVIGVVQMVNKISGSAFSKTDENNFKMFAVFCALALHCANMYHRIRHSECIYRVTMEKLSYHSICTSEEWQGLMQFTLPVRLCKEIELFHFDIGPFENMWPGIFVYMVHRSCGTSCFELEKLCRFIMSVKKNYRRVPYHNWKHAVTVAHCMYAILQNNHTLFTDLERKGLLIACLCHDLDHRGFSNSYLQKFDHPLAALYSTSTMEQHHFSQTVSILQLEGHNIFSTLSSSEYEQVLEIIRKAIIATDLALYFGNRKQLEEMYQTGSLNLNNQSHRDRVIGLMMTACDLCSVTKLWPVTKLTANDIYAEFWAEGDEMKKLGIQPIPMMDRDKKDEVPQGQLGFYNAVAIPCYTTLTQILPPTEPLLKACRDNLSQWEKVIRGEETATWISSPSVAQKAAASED
Sequence of 5-HT7 receptor (P34969 whole entry): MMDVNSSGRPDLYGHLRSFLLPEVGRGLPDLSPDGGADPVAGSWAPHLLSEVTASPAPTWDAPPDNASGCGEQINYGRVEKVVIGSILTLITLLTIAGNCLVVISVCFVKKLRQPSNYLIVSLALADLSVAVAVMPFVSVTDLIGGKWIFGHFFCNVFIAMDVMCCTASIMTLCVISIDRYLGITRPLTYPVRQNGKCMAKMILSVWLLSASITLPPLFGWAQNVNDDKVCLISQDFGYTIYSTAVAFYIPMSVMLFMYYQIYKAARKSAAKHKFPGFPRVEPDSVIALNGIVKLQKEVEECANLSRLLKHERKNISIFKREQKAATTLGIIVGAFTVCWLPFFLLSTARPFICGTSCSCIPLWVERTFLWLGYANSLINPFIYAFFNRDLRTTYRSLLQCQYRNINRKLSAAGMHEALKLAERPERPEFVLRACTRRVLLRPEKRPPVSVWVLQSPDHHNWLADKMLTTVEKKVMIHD
T1 sequence (P14416 whole entry): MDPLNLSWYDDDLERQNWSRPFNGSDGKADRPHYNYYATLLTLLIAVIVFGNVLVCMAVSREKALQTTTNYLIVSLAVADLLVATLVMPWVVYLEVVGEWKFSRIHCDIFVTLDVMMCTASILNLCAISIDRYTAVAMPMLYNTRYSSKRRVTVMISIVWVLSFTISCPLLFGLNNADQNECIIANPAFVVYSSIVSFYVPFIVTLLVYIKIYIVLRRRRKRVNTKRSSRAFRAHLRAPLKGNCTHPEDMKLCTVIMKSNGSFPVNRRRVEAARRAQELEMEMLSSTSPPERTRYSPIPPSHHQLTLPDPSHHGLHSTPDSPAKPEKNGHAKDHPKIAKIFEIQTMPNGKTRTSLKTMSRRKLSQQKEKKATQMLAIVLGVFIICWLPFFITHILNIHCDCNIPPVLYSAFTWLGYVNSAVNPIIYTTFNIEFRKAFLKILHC
T2 sequence (P28223 whole entry): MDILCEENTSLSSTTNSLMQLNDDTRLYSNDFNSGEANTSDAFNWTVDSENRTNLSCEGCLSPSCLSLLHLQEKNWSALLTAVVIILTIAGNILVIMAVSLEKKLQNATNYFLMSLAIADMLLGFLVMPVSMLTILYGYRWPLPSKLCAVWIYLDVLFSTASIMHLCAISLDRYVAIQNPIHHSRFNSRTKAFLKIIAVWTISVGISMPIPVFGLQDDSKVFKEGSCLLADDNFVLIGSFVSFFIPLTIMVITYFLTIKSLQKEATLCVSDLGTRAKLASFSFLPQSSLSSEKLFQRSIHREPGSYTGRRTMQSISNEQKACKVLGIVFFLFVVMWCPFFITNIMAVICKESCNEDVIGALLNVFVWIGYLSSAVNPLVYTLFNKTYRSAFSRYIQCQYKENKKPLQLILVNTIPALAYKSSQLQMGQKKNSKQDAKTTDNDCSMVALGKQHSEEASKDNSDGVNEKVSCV

SMILES: COc1cccc2c1C(=O)N(CCCCc1nc3ccccc3[nH]1)C2=O [Compound 18, 2-[4-(1H-Benzimidazol-2-yl)butyl]-4-methoxy-1H-isoindole-1,3(2H)-dione]
- inhibition at 1 µM [1]: 3 ± 1%
- effect on spontaneous locomotor activity ([2]; 60 mg/kg): locomotor-suppressing effects were observed
- spontaneous locomotor activity [2, 10]: 176.2
- spontaneous locomotor activity [2, 11]: 285.0
- spontaneous locomotor activity [2, 12]: 659.6
- spontaneous locomotor activity [2, 13]: 1875.4
- melting point: 69 to 70 °C
- inhibition at 1 µM [3]: 0%
- effect on AMPH-induced hyperactivity ([4]; 60 mg/kg ip): decreased AMPH-induced hyperactivity, but only for the first 10 min after injection
- effect on AMPH-induced hyperactivity ([4]; lower doses (data not shown)): did not change the stimulating effect of AMPH
- inhibition at 1 µM [5]: 8.8%
- inhibition at 3 µM ([6]; 1 h, percentage of inhibition respective to vehicle control (DMSO), 3 µM): 79%
- inhibition at 10 µM ([6]; 1 h, percentage of inhibition respective to vehicle control (DMSO), 10 µM): 92%
- IC50 ([6]; SEM of three independent experiments performed in duplicate): 0.886 ± 0.017 µM
- cell viability (MTT) [7]: Decreasing cell viability (HepG2/SHSY-5Y) is observed only at higher concentrations
- cell viability (MTT) [8]: Decreasing cell viability (HepG2/SHSY-5Y) is observed only at higher concentrations
- inhibition at 1 µM [9]: 28 ± 3%

SMILES: COc1ccc(Cc2nccc3cc(OC)c(OC)cc23)cc1OC [Papaverine, papaverine]
- spontaneous locomotor activity ([2]; 40 mg/kg ip, 10 min of the test): 43.1
- spontaneous locomotor activity ([2]; 40 mg/kg ip, 20 min of the test): 170.2
- spontaneous locomotor activity ([2]; 40 mg/kg ip, 30 min of the test): 571.9
- spontaneous locomotor activity ([2]; 40 mg/kg ip, 60 min of the test): 2260.8
- spontaneous locomotor activity [2, 10]: 7.1
- spontaneous locomotor activity [2, 11]: 24.6
- spontaneous locomotor activity [2, 12]: 47.5
- spontaneous locomotor activity [2, 13]: 200.4
- effect on spontaneous locomotor activity ([2]; 40 and 60 mg/kg): locomotor-suppressing effects were observed
- effect on AMPH-induced hyperactivity ([4]; 40 and 60 mg/kg ip): dose-dependently antagonized this response
- effect on AMPH-induced hyperactivity ([4]; lower doses (data not shown)): did not change the stimulating effect of AMPH
- PDE10A [%] 3 µM ([6]; percentage of inhibition respective to vehicle control (DMSO), 3 µM): 54%
- PDE10A [%] 10 µM ([6]; percentage of inhibition respective to vehicle control (DMSO), 10 µM): 75%

SMILES: COc1cccc2c1C(=O)c1c(O)c3c(c(O)c1C2=O)C[C@@](O)(C(=O)CO)C[C@@H]3O[C@H]1C[C@H](N)[C@H](O)[C@H](C)O1 [doxorubicin, reference compound]
- cell viability (MTT) [7]: significantly decreased cell viability already at much lower concentrations
- cell viability (MTT) [8]: significantly decreased cell viability already at much lower concentrations
